In brackets after ≈: the same amount, converted by molar mass.
Legend:
Prothrombin = Prothrombin (Homo sapiens, UniProt P00734); test: Inhibition of thrombin
[1] = Inhibition of trypsin
Plasminogen = Plasminogen (Homo sapiens, UniProt P00747); test: Inhibition of plasmin
Plasminogen, sequence (P00747 97-580 limits assumed): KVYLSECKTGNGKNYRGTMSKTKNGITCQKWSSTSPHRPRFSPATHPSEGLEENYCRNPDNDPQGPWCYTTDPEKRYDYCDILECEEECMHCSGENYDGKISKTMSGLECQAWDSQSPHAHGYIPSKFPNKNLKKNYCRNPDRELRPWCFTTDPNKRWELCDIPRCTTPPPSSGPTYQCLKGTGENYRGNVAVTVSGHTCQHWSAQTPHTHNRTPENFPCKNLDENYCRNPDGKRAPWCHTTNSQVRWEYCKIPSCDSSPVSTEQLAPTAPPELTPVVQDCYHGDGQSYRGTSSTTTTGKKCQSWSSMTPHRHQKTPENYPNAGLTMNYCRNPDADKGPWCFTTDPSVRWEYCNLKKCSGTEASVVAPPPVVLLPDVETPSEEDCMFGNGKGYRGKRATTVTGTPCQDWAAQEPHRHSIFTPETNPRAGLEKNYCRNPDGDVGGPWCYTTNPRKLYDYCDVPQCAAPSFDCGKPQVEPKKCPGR
Plasminogen, sequence (P00747 581-810 limits assumed): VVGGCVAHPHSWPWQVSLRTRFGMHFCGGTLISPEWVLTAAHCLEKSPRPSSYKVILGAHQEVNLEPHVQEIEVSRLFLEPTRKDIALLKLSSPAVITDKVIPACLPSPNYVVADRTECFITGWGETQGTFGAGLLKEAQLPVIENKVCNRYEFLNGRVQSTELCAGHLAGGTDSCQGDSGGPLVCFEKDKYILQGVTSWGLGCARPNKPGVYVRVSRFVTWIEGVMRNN

## CCO[C@@H]1[C@@H](NC(=O)C2CC3CCC(O)CC3N2C(=O)[C@@H](Cc2ccc(O)cc2)NC(=O)[C@H](O)Cc2ccc(O)cc2)CCCN1C(=N)N (stereo partly drawn)
Prothrombin
  IC50: 13.2 µM
[1]
  IC50: 51 µg/mL (≈ 74.9 µM)
Plasminogen
  IC50: 99.9 µM

Source: ChEMBL document CHEMBL1150937, “Aeruginosin 103-A, a thrombin inhibitor from the cyanobacterium Microcystis viridis” (J Nat Prod, 1998)
